Results taken from ChEMBL document CHEMBL4052659, “Synthesis, molecular docking, and biological activity of polyfluoroalkyl dihydroazolo[5,1-c][1,2,4]triazines as selective carboxylesterase inhibitors” (Bioorg Med Chem, 2017).
Calls of active or inactive are those of the source. The rule behind the calls is not given here.

What was measured:
[1] = target: Acetylcholinesterase (Homo sapiens) (UniProt P22303); test: Inhibition of human erythrocyte acetylcholinesterase at 20 uM using acetylthiocholine iodide as substrate preincubated for 10 mins followed by substrate addition by Ellman's method relative to control
[2] = target: Cholinesterase (Equus caballus) (UniProt P81908); test: Inhibition of equine serum butyrylcholinesterase at 20 uM using butyrylthiocholine iodide as substrate preincubated for 10 mins followed by substrate addition by Ellman's method relative to control
Liver carboxylesterase [3] = target: T1, Liver carboxylesterase (Sus scrofa, UniProt Q29550); test: in vitro; details: pig, porcine liver carboxylesterase, probe 4-nitrophenol acetate
T1 sequence (Q29550 whole entry): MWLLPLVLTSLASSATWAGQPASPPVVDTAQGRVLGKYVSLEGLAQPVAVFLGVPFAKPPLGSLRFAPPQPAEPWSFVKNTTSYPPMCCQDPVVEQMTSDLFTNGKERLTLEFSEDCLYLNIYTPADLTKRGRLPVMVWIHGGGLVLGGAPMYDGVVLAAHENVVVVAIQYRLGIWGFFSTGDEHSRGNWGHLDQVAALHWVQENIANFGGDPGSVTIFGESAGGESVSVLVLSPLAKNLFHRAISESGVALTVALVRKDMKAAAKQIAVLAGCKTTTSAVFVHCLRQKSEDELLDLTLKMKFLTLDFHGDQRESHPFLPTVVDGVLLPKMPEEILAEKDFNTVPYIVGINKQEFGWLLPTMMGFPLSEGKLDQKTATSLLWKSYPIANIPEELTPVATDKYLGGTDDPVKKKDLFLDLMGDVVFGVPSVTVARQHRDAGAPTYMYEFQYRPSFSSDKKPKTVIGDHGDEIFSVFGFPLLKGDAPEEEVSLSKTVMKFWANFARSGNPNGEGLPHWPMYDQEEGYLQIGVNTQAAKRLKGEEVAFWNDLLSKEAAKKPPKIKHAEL
Description: Inhibition of porcine liver carboxylesterase at 20 uM using 4-nitrophenol acetate as substrate preincubated for 10 mins followed by substrate addition by spectrophotometric analysis relative to control

Liver carboxylesterase [4] = target: T1, Liver carboxylesterase
Description: Inhibition of porcine liver carboxylesterase using 4-nitrophenol acetate as substrate preincubated for 10 mins followed by substrate addition by spectrophotometric analysis

Liver carboxylesterase [5] = target: T1, Liver carboxylesterase; test: Competitive inhibition of porcine liver carboxylesterase using varying levels of 4-nitrophenol acetate as substrate preincubated for 10 mins followed by substrate addition by Lineweaver-Burk plot analysis
Liver carboxylesterase [6] = target: T1, Liver carboxylesterase; test: Non-competitive inhibition of porcine liver carboxylesterase using varying levels of 4-nitrophenol acetate as substrate preincubated for 10 mins followed by substrate addition by Lineweaver-Burk plot analysis; details: pig
[7] = Acute toxicity in CD-1 mouse assessed as mouse survival up to 300 mg/kg, ip measured for 14 days; format: organism-based; details: in vivo
Liver carboxylesterase [8] = target: T1, Liver carboxylesterase; test: Reversible mixed-type inhibition of porcine liver carboxylesterase at 5 to 20 uM using varying levels of 4-nitrophenol acetate as substrate preincubated for 10 mins followed by substrate addition by Lineweaver-Burk double-reciprocal plot analysis; details: pig
Liver carboxylesterase [9] = target: T1, Liver carboxylesterase; test: Reversible mixed-type inhibition of porcine liver carboxylesterase at 0.5 to 2 uM using varying levels of 4-nitrophenol acetate as substrate preincubated for 10 mins followed by substrate addition by Lineweaver-Burk double-reciprocal plot analysis; details: pig
Liver carboxylesterase [10] = target: T1, Liver carboxylesterase; test: Reversible mixed-type inhibition of porcine liver carboxylesterase at 0.1 to 0.6 uM using varying levels of 4-nitrophenol acetate as substrate preincubated for 10 mins followed by substrate addition by Lineweaver-Burk double-reciprocal plot analysis; details: pig

Cholinesterase (Equus caballus), sequence (P81908 whole entry): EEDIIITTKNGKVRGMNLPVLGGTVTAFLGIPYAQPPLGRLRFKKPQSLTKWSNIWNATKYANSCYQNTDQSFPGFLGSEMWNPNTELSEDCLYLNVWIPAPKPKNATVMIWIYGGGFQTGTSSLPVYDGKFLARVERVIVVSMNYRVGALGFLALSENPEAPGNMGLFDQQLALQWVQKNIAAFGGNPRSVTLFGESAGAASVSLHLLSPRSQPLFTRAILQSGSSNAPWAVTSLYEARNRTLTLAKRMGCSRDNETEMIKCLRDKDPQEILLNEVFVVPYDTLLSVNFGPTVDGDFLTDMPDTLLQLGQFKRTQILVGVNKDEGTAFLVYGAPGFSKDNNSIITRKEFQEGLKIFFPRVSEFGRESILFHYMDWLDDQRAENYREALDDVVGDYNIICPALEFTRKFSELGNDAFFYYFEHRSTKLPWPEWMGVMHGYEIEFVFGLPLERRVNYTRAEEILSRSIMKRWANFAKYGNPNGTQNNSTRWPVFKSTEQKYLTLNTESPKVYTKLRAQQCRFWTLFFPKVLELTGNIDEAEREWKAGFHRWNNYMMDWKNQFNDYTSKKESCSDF
Acetylcholinesterase (Homo sapiens), sequence (P22303 whole entry): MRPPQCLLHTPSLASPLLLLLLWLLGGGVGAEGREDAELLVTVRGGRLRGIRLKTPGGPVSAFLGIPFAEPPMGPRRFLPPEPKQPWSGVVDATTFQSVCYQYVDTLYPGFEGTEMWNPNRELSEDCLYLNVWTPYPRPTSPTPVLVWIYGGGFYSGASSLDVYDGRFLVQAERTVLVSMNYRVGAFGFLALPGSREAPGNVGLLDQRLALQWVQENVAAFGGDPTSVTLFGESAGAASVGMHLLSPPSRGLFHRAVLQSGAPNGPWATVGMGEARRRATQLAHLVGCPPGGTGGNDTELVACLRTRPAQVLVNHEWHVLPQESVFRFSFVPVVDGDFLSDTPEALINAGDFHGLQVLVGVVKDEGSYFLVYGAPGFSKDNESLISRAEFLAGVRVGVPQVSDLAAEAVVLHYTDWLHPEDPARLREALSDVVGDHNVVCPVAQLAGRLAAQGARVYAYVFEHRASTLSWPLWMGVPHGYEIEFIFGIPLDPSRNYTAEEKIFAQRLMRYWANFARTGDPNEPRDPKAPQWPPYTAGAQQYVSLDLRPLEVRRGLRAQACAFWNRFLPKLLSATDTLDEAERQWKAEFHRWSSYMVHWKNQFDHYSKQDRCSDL

SMILES	inhibition [1]	inhibition [2]	inhibition at 20 µM (Liver carboxylesterase [3]) [%]	IC50 (Liver carboxylesterase [4]) [µM]	Ki (Liver carboxylesterase [5]) [µM]	alphaKi (Liver carboxylesterase [6]) [µM]	survival at 336 h [7] [%]	inhibition (INH) (Liver carboxylesterase [8])	inhibition (INH) (Liver carboxylesterase [9])	inhibition (INH) (Liver carboxylesterase [10])
CCOC(=O)C1=NNc2c(C(=O)OCC)cnn2C1(O)C(F)(F)F (stereo not drawn)	inactive	8.5%	9.3	–	–	–	–	–	–	–
CCOC(=O)C1=NNc2ncnn2C1(O)C(F)(F)C(F)(F)C(F)(F)C(F)(F)F (stereo not drawn)	inactive	3.7%	–	0.98	–	–	–	–	–	–
COC(=O)C1=NNc2nnnn2C1(O)C(F)(F)F (stereo not drawn)	inactive	4.1%	–	58.6	–	–	–	–	–	–
CCOC(=O)C1=NNc2cc(C)nn2C1(O)C(F)(F)F (stereo not drawn)	inactive	7.3%	–	48.3	–	–	–	–	–	–
CCOC(=O)c1cnn2c1NN=C(C(=O)OC)C2(O)C(F)(F)C(F)(F)C(F)(F)F (stereo not drawn)	inactive	inactive	–	38.2	–	–	–	–	–	–
CCOC(=O)C1=NNc2c(C(=O)OCC)ncn2C1(O)C(F)(F)F (stereo not drawn)	inactive	inactive	–	34.4	–	–	–	–	–	–
CCOC(=O)C1=NNc2cc(-c3ccccc3)nn2C1(O)C(F)(F)C(F)(F)F (stereo not drawn)	13.6%	22%	–	3.91	1.61	3.52	100	–	–	–
COC(=O)C1=NNc2ncnn2C1(O)C(F)(F)C(F)(F)C(F)(F)C(F)(F)F (stereo not drawn)	inactive	inactive	–	10.7	6.51	23.4	–	Active	–	–
CCOC(=O)c1nnc(N)nc1C(F)(F)F	inactive	inactive	–	3.9	–	–	–	–	–	–
COC(=O)C1=NNc2cc(-c3ccccc3)nn2C1(O)C(F)(F)C(F)(F)C(F)(F)C(F)(F)F (stereo not drawn)	11.7%	11.6%	–	0.96	0.7	1.6	–	–	–	–
COC(=O)C1=NNc2nnnn2C1(O)C(F)(F)C(F)(F)C(F)(F)F (stereo not drawn)	inactive	inactive	–	3.29	–	–	–	–	–	–
COC(=O)C1=NNc2nnnn2C1(O)C(F)(F)C(F)(F)C(F)(F)C(F)(F)F (stereo not drawn)	inactive	inactive	–	1.31	0.57	1.74	100	–	Active	–
COC(=O)C1=NNc2nnnn2C1(O)C(F)(F)C(F)F (stereo not drawn)	inactive	inactive	–	12.3	–	–	–	–	–	–
CCOC(=O)C1=NNc2cc(-c3ccccc3)nn2C1(O)C(F)(F)F (stereo not drawn)	3.8%	inactive	–	16.4	–	–	–	–	–	–
CCOC(=O)C1=NNc2cc(-c3ccccc3)nn2C1(O)C(F)(F)C(F)(F)C(F)(F)C(F)(F)F (stereo not drawn)	inactive	16.2%	–	0.46	0.23	0.69	100	–	–	Active
O=C(C1=NNc2nnnn2C1(O)C(F)(F)F)c1ccccc1 (stereo not drawn)	inactive	inactive	–	17.2	–	–	–	–	–	–
CCOC(=O)C1=NNc2nnnn2C1(O)C(F)(F)C(F)(F)C(F)(F)C(F)(F)F (stereo not drawn)	inactive	inactive	–	0.83	–	–	–	–	–	–
O=C(C1=NNc2ncnn2C1(O)C(F)(F)C(F)(F)C(F)(F)F)c1ccccc1 (stereo not drawn)	inactive	inactive	–	53.4	–	–	–	–	–	–
O=[N+]([O-])c1ccc(OP(=O)(O)Oc2ccc([N+](=O)[O-])cc2)cc1	inactive	inactive	–	1.8	–	–	–	–	–	–
CCOC(=O)C1=NNc2ncnn2C1(O)C(F)(F)F (stereo not drawn)	inactive	inactive	–	3.6	–	–	–	–	–	–
CCOC(=O)C1=NNc2cc(C)nn2C1(O)C(F)(F)C(F)(F)C(F)(F)C(F)(F)F (stereo not drawn)	3%	6%	–	1.44	–	–	100	–	–	–
CCOC(=O)C1=NNc2nnnn2C1(O)C(F)(F)F (stereo not drawn)	inactive	inactive	–	13.6	–	–	–	–	–	–
